Like-named read-outs stand apart in the source and are kept apart here.
Key:
[1] = test system: chloroquine-resistant (W2) strain of P. falciparum; assay: P. falciparum drug susceptibility assay (pLDH), W2 strain; type: cell-based; conditions: Plasmodium falciparum, read-out: W2 IC50
Description: (§1) All reagents were from Sigma Aldrich, Milan, Italy unless indicated otherwise. As reported in the literature, the chloroquine-sensitive (D10) and chloroquine-resistant (W2) strains of P. falciparum were maintained in vitro at 5% hematocrit medium (constituted of human type Apositive red blood cells) in RPMI 1640 (EuroClone, Celbio, Italy) with the addition of 1% AlbuMax (Invitrogen, Milan, Italy), 0.01% hypoxanthine, […], and […]. The resulting cultures were incubated at 37 °C in a mixture of standard gas with the following composition: 1% O2, 5% CO2, and 94% N2. […] Drugs were placed in 96 well flat-bottom microplates and a series of dilutions performed. Asynchronous cultures (parasitemia of 1–1.5%; 1% final hematocrit) were aliquoted into the plates and incubated for 72 h at 37 °C. The cultures were washed with PBS before the chemosensitivity assay while the parasite growth was determined spectrophotometrically (OD650) by measuring the parasite lactate dehydrogenase (pLDH) activity. These measurements were made according to the modified version of Makler’s method both in control and drug-tested cultures. Antiplasmodial activity is expressed as 50% inhibitory concentrations (IC50), which means the dose of compounds necessary to inhibit cell growth by 50%. Each IC50 value is the mean standard deviation of at least three separate experiments performed in duplicate.

[2] = test system: chloroquine-sensitive (D10) strain of P. falciparum; assay: P. falciparum drug susceptibility assay (pLDH), D10 strain; type: cell-based; conditions: Plasmodium falciparum, read-out: D10 IC50
Description: as §1

[3] = test system: human microvascular endothelial cells (HMEC-1); assay: Cytotoxicity assay on HMEC-1 cell line; type: cell-based; conditions: cytotoxicity on HMEC-1 cell line
[4] = test system: P. falciparum; set-up: method as in PMID 30640072; conditions: D10 and W2 strains, earlier work; cited from earlier work
[5] = test system: embryonic murine fibroblasts (NIH-3T3 cell line); set-up: method as in PMID 31718145; conditions: cytotoxicity on NIH-3T3 cell line; cited from earlier work
[6] = test system: S. mansoni; set-up: method as in PMID 31718145; conditions: schistosomula, adult worm pairs, juvenile parasites, eggs; cited from earlier work
[7] = set-up: method as in PMID 31718145; conditions: cited from earlier work
[8] = CQ-resistant W2 strain, pLDH assay, 72 h, mean ± SD of three experiments in duplicate
[9] = CQ-sensitive D10 strain, pLDH assay, 72 h, mean ± SD of three experiments in duplicate

CCN(CC)CCCC(C)Nc1ccnc2cc(Cl)ccc12 (stereo not shown) [CQ, chloroquine, reference compound]
IC50 ([1]; W2, 72 h): 0.54 µM | IC50 ([2]; D10, 72 h): 0.04 µM

CC[C@@]1(O)C(=O)OCc2c1cc1n(c2=O)Cc2cc3ccccc3nc2-1 [Camptothecin, reference compound]
IC50 [3]: 0.018 µM

COC1=C(Cc2ccccc2)C(=O)C2=C(NCCS2(=O)=O)C1=O [Compound 22]
antiplasmodial activity (in words) [4]: active in the range of low-micromolar concentrations | IC50 [1, 8]: 0.7 ± 0.22 µM | IC50 [3]: 17.6 ± 1.4 µM | IC50 [2, 9]: 0.6 ± 0.21 µM | IC50 [5]: 88.6 ± 7.7 µM

COC1=C(Cc2ccccc2)C(=O)C=CC1=O [Compound 23]
antiplasmodial activity (in words) [4]: absence of activity | activity against S. mansoni (in words) [6]: inactive

COC1=C(Cc2ccc(Cl)cc2)C(=O)C2=C(NCCS2(=O)=O)C1=O [Compound 24]
IC50 [1, 8]: 1.9 ± 1.05 µM | IC50 [3]: 8.51 ± 0.76 µM | IC50 [2, 9]: 1.63 ± 0.35 µM

COC1=C(Cc2ccc(C(F)(F)F)cc2)C(=O)C2=C(NCCS2(=O)=O)C1=O [Compound 25]
IC50 [1, 8]: 5.02 ± 1.81 µM | IC50 [3]: 20.4 ± 1.6 µM | IC50 [2, 9]: 5.06 ± 1.68 µM

COC1=C(Cc2ccc(OC)cc2)C(=O)C2=C(NCCS2(=O)=O)C1=O [Compound 26]
cLogD [7]: 0.33 | IC50 [1, 8]: 1.22 ± 0.24 µM | IC50 [3]: 17.9 ± 1.1 µM | IC50 [2, 9]: 1.21 ± 0.2 µM | IC50 [5]: > 100 µM

COC1=C(Cc2ccc(OC(F)(F)F)cc2)C(=O)C2=C(NCCS2(=O)=O)C1=O [Compound 27]
cLogD [7]: 1.37 | IC50 [1, 8]: 0.81 ± 0.19 µM | IC50 [3]: 3.59 ± 0.72 µM | IC50 [2, 9]: 1.12 ± 0.4 µM
